Measured values reported in ChEMBL document CHEMBL1142549, “New retinoid chemotypes: 9-cis-retinoic acid analogs with hydrophobic rings derived from terpenes as selective RAR agonists” (Bioorg Med Chem, 2008).
The source made the active and inactive calls. No cut-off for these calls is given here.

Biological target: T1, Retinoic acid receptor RXR-beta (Homo sapiens) (UniProt P28702)
T1 sequence (whole entry): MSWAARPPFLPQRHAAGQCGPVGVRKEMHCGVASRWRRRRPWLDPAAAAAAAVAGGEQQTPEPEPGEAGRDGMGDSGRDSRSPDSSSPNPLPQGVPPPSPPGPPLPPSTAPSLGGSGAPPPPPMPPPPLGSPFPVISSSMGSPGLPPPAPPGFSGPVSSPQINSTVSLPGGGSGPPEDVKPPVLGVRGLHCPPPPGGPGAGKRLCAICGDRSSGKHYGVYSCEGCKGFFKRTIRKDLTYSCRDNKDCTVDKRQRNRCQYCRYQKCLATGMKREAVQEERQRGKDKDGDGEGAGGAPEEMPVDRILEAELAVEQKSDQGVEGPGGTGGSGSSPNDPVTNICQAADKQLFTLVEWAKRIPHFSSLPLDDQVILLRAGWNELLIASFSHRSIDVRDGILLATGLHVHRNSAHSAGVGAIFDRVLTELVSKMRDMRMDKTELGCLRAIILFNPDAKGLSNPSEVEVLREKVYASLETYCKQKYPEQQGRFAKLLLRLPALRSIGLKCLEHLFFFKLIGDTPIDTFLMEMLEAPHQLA
Test: Agonist activity at human RXRbeta expressed in human HeLa cells assessed as relative luminescence units by luciferase assay relative to control
Format: functional, cell-based

- Activity: Active
Compound: CC(=C/C=C/C(C)=C/C(=O)O)/C=C/C1=C[C@H](C)CC[C@H]1C(C)C
